Source: US8906825B2, “Herbicidal compositions comprising 4-amino-3-chloro-5-fluoro-6-(4-chloro-2-fluoro-3-methoxyphenyl) pyridine-2-carboxylic acid or a derivative thereof and triazolopyrimidine sulfonamides” (Dow AgroSciences LLC, priority 2012, dated 2014)

How the values were obtained:
Assay type in all cases: in vivo
[1] = system: ECHCG (Echinochloa crusgalli (L.) Beauv., barnyardgrass); assay: In-water applied herbicidal mixtures, transplanted paddy rice, greenhouse (Example II)
[2] = system: FIMMI (Fimbristylis miliacea (L.) Vahl, globe fringerush); assay: as above; settings: Compound A Benzyl Ester 8 gae/ha
[3] = system: CIRAR (Cirsium arvense (L.) Scop., Canada thistle); assay: Postemergence foliar-applied herbicidal mixtures, cereal crops, greenhouse (Example III)
Method: (§1) Seeds of the desired test plant species were planted in Sun Gro MetroMix® 306 planting mixture, which typically has a pH of 6.0 to 6.8 and an organic matter content of about 30 percent, in plastic pots with a surface area of 103.2 square centimeters (cm^2). […] The plants were grown for 7-36 days in a greenhouse with an approximate 14 hour photoperiod which was maintained at about 18° C. during the day and about 17° C. during the night. Nutrients and water were added on a regular basis and supplemental lighting was provided with overhead metal halide 1000-Watt lamps as necessary. The plants were employed for testing when they reached the second or third true leaf stage.
(§2) Treatments consisted of the benzyl ester of 4-amino-3-chloro-5-fluoro-6-(4-chloro-2-fluoro-3-methoxy-phenyl)pyridine-2-carboxylic acid (Compound A), formulated as an SC, a second cereal herbicide alone and then both in combination.
(§3) Other herbicidal components were applied on an active ingredient basis and included acetolactate synthase (ALS)-inhibiting herbicides (sulfonamide chemical class) florasulam formulated as Derby® and pyroxsulam formulated as PowerFlex®. A measured aliquot of benzyl ester of 4-amino-3-chloro-5-fluoro-6-(4-chloro-2-fluoro-3-methoxy-phenyl)pyridine-2-carboxylic acid (Compound A) was placed in 25 milliliter (mL) glass vials and diluted in a volume of 1.25% (v/v) AgriDex® crop oil concentrated to obtain a stock solution. Compound requirements are based upon a 12 mL application volume at a rate of 187 liters per hectare (L/ha). […] Formulated compounds were applied to the plant material with an overhead Mandel track sprayer equipped with an 8002E nozzle calibrated to deliver 187 L/ha over an application area of 0.503 square meters (m^2) at a spray height of 18 inches (46 cm) above average plant canopy. Control plants were sprayed in the same manner with the solvent blank.
(§4) The treated plants and control plants were placed in a greenhouse as described above and watered by sub-irrigation to prevent wash-off of the test compounds. After 20-22 days, the condition of the test plants as compared with that of the control plants was determined visually and scored on a scale of 0 to 100 percent where 0 corresponds to no injury and 100 corresponds to complete kill.
(§5) Colby's equation was used to determine the herbicidal effects expected from the mixtures (Colby, S. R. 1967. Calculation of the synergistic and antagonistic response of herbicide combinations. Weeds 15:20-22.).
(§6) The following equation was used to calculate the expected activity of mixtures containing two active ingredients, A and B: Expected=A+B−(A×B/100)

[4] = system: LAMPU (Lamium purpureum (L.), purple deadnettle); assay: as above; settings: Compound A Benzyl Ester 8.75 gai/ha, visual score 0 to 100 percent after 20-22 days
Method: as §1, §2, §3, §4, §5, §6

[5] = system: MATCH (Chamomilla chamomilla (L.) Rydb., scented mayweed); assay: as above; settings: Compound A Benzyl Ester 5 gai/ha, visual score 0 to 100 percent after 20-22 days
Method: as §1, §2, §3, §4, §5, §6

[6] = system: SASKR (Salsola iberica (L.), Russian thistle); assay: as above; settings: Compound A Benzyl Ester 5 gai/ha, visual score 0 to 100 percent after 20-22 days
Method: as §1, §2, §3, §4, §5, §6

[7] = system: VERPE (Veronica persica Poir., bird's-eye speedwell); assay: as above; settings: visual score 0 to 100 percent after 20-22 days
Method: as §1, §2, §3, §4, §5, §6

[8] = system: VIOTR (Viola tricolor (L.), wild pansy); assay: as above; settings: Compound A Benzyl Ester 5 gai/ha, visual score 0 to 100 percent after 20-22 days
Method: as §1, §2, §3, §4, §5, §6

## COc1c(Cl)ccc(-c2nc(C(=O)OCc3ccccc3)c(Cl)c(N)c2F)c1F [Compound A Benzyl Ester, benzyl ester of 4-amino-3-chloro-5-fluoro-6-(4-chloro-2-fluoro-3-methoxy-phenyl)pyridine-2-carboxylic acid]
[1]; Compound A Benzyl Ester 4.38 gae/ha
  Visual Weed Control (%) - 21 DAA ECHCG Obs: 20%
[1]; Compound A Benzyl Ester 8.75 gae/ha
  Visual Weed Control (%) - 21 DAA ECHCG Obs: 85%
[2]
  Visual Weed Control (%) - 21 DAA FIMMI Obs: 30%
[3]; Compound A Benzyl Ester 5 gai/ha, visual score 0 to 100 percent after 20-22 days
  CIRAR Obs: 40%
[3]; Compound A Benzyl Ester 8.75 gai/ha, visual score after 20-22 days, Table 17
  CIRAR Obs: 40%
[3]; Compound A Benzyl Ester 8.75 gai/ha, visual score after 20-22 days, Table 18
  CIRAR Obs: 40%
[4]
  LAMPU Obs: 83%
[5]
  MATCH Obs: 13%
[6]
  SASKR Obs: 57%
[7]; Compound A Benzyl Ester 5 gai/ha
  VERPE Obs: 37%
[7]; Compound A Benzyl Ester 8.75 gai/ha
  VERPE Obs: 50%
[8]
  VIOTR Obs: 13%
